Experiment [1] relates to human breast MDA-MB-361 tumor cell line. As to the kind of experiment: In vitro cell culture growth assay (MTS), MDA-MB-361. As to conditions: read-out: IC50 MDA-MB-361. It counts as cell-based.
Experiment [2] concerns human prostate PC3-mm2 tumor cell line. As to the kind of experiment: In vitro cell culture growth assay (MTS), PC3-mm2. It counts as cell-based. As to conditions: read-out: IC50 PC3-mm2.
The next experiment concerns the target PI3K-γ (Homo sapiens, UniProt P48736). Briefly: PI3K-gamma fluorescence polarization assay. As to conditions: read-out: IC50 PI3Kγ. For orientation: Fluorescence polarisation rises when a labelled molecule tumbles more slowly, as on binding a larger partner.
The next experiment deals with Human mTOR (FLAG-TOR) (Homo sapiens, UniProt P42345). As to the kind of experiment: mTOR kinase assay (DELFIA format, purified enzyme). It counts as biochemical. The conditions noted are these: read-out: IC50 mTOR.
Another experiment addresses PI3K-α (Homo sapiens, UniProt P42336). As to the kind of experiment: PI3K-alpha fluorescence polarization assay. The conditions noted are these: read-out: IC50 PI3Kα.
The mark [3] stands for this setting: MTS cell growth assay, three days after drug treatment.
Setting [4] is: MTS cell growth assay, three days after drug treatment, MDA-MB-361 cells.
Where [5] appears, read: MTS cell growth assay, three days after drug treatment, PC3-mm2 cells.
Setting [6] is: Homo sapiens, PC3MM2, 72 h, MTS cell growth assay, three days after drug treatment.
Where [7] appears, read: Homo sapiens, PC3MM2, 72 h, PC3-mm2 cells, MTS, three days after drug treatment.

pIC50: −log10 of the molar value. Where two headings read alike, the source gives them in different places. Some results are limits rather than exact numbers.

PI3K-γ, sequence (P48736 whole entry, species assumed): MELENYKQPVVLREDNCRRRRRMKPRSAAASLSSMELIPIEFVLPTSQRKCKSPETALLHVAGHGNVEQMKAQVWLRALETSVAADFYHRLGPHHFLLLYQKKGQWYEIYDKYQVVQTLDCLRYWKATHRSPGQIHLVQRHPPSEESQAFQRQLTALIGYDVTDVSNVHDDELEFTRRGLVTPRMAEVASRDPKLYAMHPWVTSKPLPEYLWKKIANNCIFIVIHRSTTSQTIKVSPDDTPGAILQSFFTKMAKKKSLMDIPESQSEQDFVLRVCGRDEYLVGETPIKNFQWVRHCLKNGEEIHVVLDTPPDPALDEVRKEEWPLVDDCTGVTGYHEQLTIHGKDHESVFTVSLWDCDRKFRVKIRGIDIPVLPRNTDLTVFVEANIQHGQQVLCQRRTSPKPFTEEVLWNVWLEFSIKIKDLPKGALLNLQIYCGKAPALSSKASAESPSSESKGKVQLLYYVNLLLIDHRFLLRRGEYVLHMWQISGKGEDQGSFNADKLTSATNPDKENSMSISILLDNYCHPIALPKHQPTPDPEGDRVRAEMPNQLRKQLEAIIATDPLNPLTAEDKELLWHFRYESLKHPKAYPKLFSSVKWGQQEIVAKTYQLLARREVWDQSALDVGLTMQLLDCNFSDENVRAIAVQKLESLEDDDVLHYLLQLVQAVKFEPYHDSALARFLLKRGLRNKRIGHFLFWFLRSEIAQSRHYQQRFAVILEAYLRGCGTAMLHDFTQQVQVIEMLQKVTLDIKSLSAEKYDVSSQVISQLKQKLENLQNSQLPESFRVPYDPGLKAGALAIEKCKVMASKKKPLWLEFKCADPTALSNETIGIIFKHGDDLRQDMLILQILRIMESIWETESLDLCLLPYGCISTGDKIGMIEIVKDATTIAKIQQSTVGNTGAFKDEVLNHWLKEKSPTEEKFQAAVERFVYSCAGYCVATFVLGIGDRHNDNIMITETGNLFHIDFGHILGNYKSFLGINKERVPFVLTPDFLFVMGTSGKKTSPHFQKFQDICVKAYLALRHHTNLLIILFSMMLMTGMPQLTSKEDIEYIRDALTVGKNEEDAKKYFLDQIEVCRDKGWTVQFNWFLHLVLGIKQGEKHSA
PI3K-α, sequence (P42336 whole entry, species assumed): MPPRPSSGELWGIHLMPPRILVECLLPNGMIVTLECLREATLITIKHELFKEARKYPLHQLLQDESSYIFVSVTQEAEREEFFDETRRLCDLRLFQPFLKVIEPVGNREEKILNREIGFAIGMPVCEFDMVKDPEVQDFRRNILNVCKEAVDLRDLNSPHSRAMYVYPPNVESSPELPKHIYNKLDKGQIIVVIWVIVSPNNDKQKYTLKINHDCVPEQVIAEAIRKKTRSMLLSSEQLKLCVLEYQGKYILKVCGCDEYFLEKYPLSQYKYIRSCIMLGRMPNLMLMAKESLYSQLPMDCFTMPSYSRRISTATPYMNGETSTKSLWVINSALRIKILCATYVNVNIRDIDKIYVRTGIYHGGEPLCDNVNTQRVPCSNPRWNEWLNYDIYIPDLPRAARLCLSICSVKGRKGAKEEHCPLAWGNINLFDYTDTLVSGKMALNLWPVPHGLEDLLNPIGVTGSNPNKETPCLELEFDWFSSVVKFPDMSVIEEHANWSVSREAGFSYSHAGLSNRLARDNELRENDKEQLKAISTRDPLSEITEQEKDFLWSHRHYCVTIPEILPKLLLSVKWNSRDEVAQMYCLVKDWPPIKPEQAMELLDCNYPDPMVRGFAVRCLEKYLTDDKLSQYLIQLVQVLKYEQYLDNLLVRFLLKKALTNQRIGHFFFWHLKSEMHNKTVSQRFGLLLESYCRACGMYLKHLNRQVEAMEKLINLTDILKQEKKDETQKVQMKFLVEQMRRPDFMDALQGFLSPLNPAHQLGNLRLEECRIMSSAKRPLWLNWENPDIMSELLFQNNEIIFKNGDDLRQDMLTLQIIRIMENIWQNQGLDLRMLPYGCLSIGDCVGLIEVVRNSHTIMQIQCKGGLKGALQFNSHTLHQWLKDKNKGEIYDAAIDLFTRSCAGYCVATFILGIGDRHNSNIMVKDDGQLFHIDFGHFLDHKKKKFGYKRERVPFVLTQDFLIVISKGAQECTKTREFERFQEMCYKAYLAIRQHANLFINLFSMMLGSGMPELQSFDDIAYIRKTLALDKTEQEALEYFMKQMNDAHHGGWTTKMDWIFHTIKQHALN
PI3K-α, sequence (P27986 whole entry partner, species assumed): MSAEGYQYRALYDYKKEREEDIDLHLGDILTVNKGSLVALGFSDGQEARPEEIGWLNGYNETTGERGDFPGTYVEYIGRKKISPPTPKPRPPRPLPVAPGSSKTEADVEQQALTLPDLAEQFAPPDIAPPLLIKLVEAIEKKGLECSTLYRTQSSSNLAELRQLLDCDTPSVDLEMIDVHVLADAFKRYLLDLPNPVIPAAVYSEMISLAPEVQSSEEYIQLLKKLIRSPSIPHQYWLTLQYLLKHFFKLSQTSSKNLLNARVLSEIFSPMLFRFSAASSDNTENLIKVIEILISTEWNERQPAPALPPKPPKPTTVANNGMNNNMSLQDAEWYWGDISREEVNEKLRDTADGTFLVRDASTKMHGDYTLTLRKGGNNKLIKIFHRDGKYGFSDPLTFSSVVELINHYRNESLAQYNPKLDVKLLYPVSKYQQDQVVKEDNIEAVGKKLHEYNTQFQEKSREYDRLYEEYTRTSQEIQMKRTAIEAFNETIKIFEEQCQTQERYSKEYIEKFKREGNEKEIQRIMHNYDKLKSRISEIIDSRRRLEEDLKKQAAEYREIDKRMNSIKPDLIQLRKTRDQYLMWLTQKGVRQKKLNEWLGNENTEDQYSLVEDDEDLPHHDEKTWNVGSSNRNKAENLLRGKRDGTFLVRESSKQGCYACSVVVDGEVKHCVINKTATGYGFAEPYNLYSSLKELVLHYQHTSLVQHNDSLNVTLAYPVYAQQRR
Human mTOR (FLAG-TOR), sequence (P42345 1360-2549 limits assumed): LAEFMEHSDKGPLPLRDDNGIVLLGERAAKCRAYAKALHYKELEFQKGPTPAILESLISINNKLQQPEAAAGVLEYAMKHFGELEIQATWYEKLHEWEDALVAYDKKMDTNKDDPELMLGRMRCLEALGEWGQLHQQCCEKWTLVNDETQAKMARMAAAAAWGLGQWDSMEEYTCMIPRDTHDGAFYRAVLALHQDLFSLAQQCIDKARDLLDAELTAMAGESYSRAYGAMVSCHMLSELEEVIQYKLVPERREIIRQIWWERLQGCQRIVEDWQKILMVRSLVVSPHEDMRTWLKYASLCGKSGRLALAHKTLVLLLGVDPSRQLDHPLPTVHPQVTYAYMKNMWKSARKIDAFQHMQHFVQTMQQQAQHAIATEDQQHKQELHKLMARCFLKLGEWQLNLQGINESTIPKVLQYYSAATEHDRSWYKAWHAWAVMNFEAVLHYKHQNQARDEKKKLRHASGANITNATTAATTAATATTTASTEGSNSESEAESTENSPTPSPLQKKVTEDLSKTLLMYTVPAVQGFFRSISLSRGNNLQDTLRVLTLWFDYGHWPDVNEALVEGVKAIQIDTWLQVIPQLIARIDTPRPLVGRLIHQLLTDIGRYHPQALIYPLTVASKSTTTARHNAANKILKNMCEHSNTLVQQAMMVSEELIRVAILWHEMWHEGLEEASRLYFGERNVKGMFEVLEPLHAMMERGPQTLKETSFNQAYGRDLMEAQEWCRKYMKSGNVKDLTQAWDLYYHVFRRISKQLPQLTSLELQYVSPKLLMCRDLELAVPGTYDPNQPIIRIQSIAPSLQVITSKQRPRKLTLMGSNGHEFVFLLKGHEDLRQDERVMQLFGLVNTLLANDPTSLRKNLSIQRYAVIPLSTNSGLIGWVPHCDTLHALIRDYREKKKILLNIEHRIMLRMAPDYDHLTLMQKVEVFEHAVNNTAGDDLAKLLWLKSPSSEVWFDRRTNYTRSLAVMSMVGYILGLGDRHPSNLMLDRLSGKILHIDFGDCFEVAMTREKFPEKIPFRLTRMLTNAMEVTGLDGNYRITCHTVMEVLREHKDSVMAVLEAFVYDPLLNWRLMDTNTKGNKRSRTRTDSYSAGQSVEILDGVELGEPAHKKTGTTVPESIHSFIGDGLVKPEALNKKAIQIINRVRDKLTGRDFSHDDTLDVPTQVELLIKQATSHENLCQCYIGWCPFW

Consider “1-(4-(4,6-dimorpholino-1,3,5-triazin-2-yl)phenyl)-3-(4-(2-(pyridin-2-yl)acetyl)phenyl)urea [Example 78]”, for which the figures for the pIC50 (in experiment [1] (setting [3]); in experiment [2] (setting [3]); at PI3K-γ) were 7.17, 7.51 and 7.64, respectively.

Take “1-(4-{[4-(dimethylamino)piperidin-1-yl]carbonyl}phenyl)-3-[4-(4-morpholin-4-yl-6-phenyl-1,3,5-triazin-2-yl)phenyl]urea [Example 544]”: the pIC50 is 7.77 at Human mTOR (FLAG-TOR), 7.24 in experiment [1] (setting [4]), 8.46 on PI3K-α and 7.69 at PI3K-γ.

As to “1-(4-{[(3S)-3-(dimethylamino)pyrrolidin-1-yl]carbonyl}phenyl)-3-{4-[4-morpholin- [Example 517]”, the pIC50 at Human mTOR (FLAG-TOR) is 8.97; in experiment [2] (setting [5]), 8.15; at PI3K-α it was 8.47; on PI3K-γ it was 7.73.

On to “4-{[(4-{4-morpholin-4-yl-6-[(3S)-tetrahydrofuran-3-yloxy]-1,3,5-triazin-2-yl}phenyl)carbamoyl]amino}-N-(2-pyrrolidin-1-ylethyl)benzamide [Example 521]”, for which the pIC50 was 8.10 in experiment [1] (setting [4]), 7.57 in experiment [2] (setting [5]) and 8.85 on PI3K-α.

As for `O=C(Nc1ccncc1)Nc1ccc(-c2nc(N3CCCCC3)nc(N3CC4CCC(C3)O4)n2)cc1` [Example 79, 1-(4-(4-(8-oxa-3-azabicyclo[3.2.1]octan-3-yl)-6-(piperidin-1-yl)-1,3,5-triazin-2-yl)phenyl)-3-(pyridin-4-yl)urea], the pIC50 is 8.29 on Human mTOR (FLAG-TOR), 6.49 in experiment [2] (setting [6]), 6.11 on PI3K-α and 6.71 on PI3K-γ.

For `O=C(Nc1ccncc1)Nc1ccc(-c2nc(N3CCCC3)nc(N3CC4CCC(C3)O4)n2)cc1` [Example 80, 1-(4-(4-(8-oxa-3-azabicyclo[3.2.1]octan-3-yl)-6-(pyrrolidin-1-yl)-1,3,5-triazin-2-yl)phenyl)-3-(pyridin-4-yl)urea], the pIC50 at Human mTOR (FLAG-TOR) was 8.15; in experiment [2] (setting [6]), 6.49; at PI3K-α, 6.07; at PI3K-γ it was 5.67.

On to `O=C(Nc1ccc(C(=O)NCCN2CCCCC2)cc1)Nc1ccc(-c2nc(N3CCOCC3)nc(N3CCOCC3)n2)cc1` [Example 151, 4-({[4-(4,6-dimorpholin-4-yl-1,3,5-triazin-2-yl)phenyl]carbamoyl}amino)-N-(2-piperidin-1-ylethyl)benzamide], for which the pIC50 was 8.15 at Human mTOR (FLAG-TOR), 7.85 in experiment [2] (setting [6]), 9.22 at PI3K-α and 5.09 on PI3K-γ.

Consider `CCCCc1nc(-c2ccc(NC(=O)Nc3ccc(C(=O)N(C)CCN(C)C)cc3)cc2)nc(N2CCOCC2)n1` [Example 198, 4-({[4-(4-butyl-6-morpholin-4-yl-1,3,5-triazin-2-yl)phenyl]carbamoyl}amino)-N-[2-(dimethylamino)ethyl]-N-methylbenzamide], for which the negative-log IC50 (pIC50) on Human mTOR (FLAG-TOR) was 8.70; in experiment [2] (setting [6]), 7.37; at PI3K-α, 8.70; at PI3K-γ, 7.48.

As for `CNCCN(C)C(=O)c1ccc(NC(=O)Nc2ccc(-c3nc(OC)nc(N4CCOCC4)n3)cc2)cc1` [Example 245, 4-({[4-(4-methoxy-6-morpholin-4-yl-1,3,5-triazin-2-yl)phenyl]carbamoyl}amino)-N-methyl-N-[2-(methylamino)ethyl]benzamide], the pIC50 in experiment [1] (Homo sapiens, MDA-MB-361, 72 h) is 6.96; in experiment [2] (Homo sapiens, PC3MM2, 72 h) it was 6.43; at PI3K-α, 9.00; on PI3K-α (listed as 722), 9.10.

As to `COc1nc(-c2ccc(NC(=O)Nc3ccc(C(=O)N4CCN(C)CC4)cc3)cc2)nc(N2CCOCC2)n1` [Example 246, 1-[4-(4-methoxy-6-morpholin-4-yl-1,3,5-triazin-2-yl)phenyl]-3-{4-[(4-methylpiperazin-1-yl)carbonyl]phenyl}urea], the pIC50 in experiment [1] (Homo sapiens, MDA-MB-361, 72 h) was 7.46; in experiment [2] (Homo sapiens, PC3MM2, 72 h), 7.04.

As for `COc1nc(-c2ccc(NC(=O)Nc3ccc(C(=O)N4CCNC(C)(C)C4)cc3)cc2)nc(N2CCOCC2)n1` [Example 247, 1-{4-[(3,3-dimethylpiperazin-1-yl)carbonyl]phenyl}-3-[4-(4-methoxy-6-morpholin-4-yl-1,3,5-triazin-2-yl)phenyl]urea], the pIC50 in experiment [1] (Homo sapiens, MDA-MB-361, 72 h) is 7.52; in experiment [2] (Homo sapiens, PC3MM2, 72 h) it was 6.95; at PI3K-α it was 8.70; on PI3K-α (listed as 724), 8.82.

Regarding `COc1nc(-c2ccc(NC(=O)Nc3ccc(C(=O)NCCN4CCCCC4)cc3)cc2)nc(N2CCOCC2)n1` [Example 248, 4-({[4-(4-methoxy-6-morpholin-4-yl-1,3,5-triazin-2-yl)phenyl]carbamoyl}amino)-N-(2-piperidin-1-ylethyl)benzamide], the pIC50 in experiment [1] (Homo sapiens, MDA-MB-361, 72 h) was above 7.51; in experiment [2] (Homo sapiens, PC3MM2, 72 h), 7.16; at PI3K-α, 8.70.

On to `CCc1nc(-c2ccc(NC(=O)Nc3ccc(C(=O)Nc4ccc(N5CCN(C)CC5)cc4)cc3)cc2)nc(N2CCOCC2)n1` [Example 251, 4-({[4-(4-ethyl-6-morpholin-4-yl-1,3,5-triazin-2-yl)phenyl]carbamoyl}amino)-N-[4-(4-methylpiperazin-1-yl)phenyl]benzamide], for which the pIC50 at Human mTOR (FLAG-TOR) was 8.22; in experiment [2] (setting [6]) it was 7.19; on PI3K-α it was 8.70; on PI3K-γ, 7.68.

Regarding `CCCCc1nc(-c2ccc(NC(=O)Nc3ccc(C(=O)Nc4ccc(OCCN(C)C)cc4)cc3)cc2)nc(N2CCOCC2)n1` [Example 269, 4-({[4-(4-butyl-6-morpholin-4-yl-1,3,5-triazin-2-yl)phenyl]carbamoyl}amino)-N-{4-[2-(dimethylamino)ethoxy]phenyl}benzamide], the pIC50 at Human mTOR (FLAG-TOR) is 7.10; in experiment [2] (setting [6]), 6.84; at PI3K-α, 8.22; at PI3K-γ it was 6.85.

Take `CC(C)c1nc(-c2ccc(NC(=O)Nc3ccc(C(=O)NC4CN(C)C4)cc3)cc2)nc(N2CCOCC2)n1` [Example 307, N-(1-methylazetidin-3-yl)-4-[({4-[4-(1-methylethyl)-6-morpholin-4-yl-1,3,5-triazin-2-yl]phenyl}carbamoyl)amino]benzamide]: the pIC50 at Human mTOR (FLAG-TOR) was 8.55; in experiment [2] (setting [6]), 6.44; on PI3K-α it was 8.52; at PI3K-γ it was 7.52.

In the case of `CC(C)Cc1nc(-c2ccc(NC(=O)Nc3ccc(C(=O)N4CCC(N(C)C)CC4)cc3)cc2)nc(N2CCOCC2)n1` [Example 323, 1-(4-{[4-(dimethylamino)piperidin-1-yl]carbonyl}phenyl)-3-{4-[4-(2-methylpropyl)-6-morpholin-4-yl-1,3,5-triazin-2-yl]phenyl}urea], the pIC50 on Human mTOR (FLAG-TOR) was 8.15; in experiment [2] (setting [6]), 7.11; at PI3K-α it was 8.54; on PI3K-γ it was 7.49.

For the molecule `CN(C)CCN(C)C(=O)Nc1ccc(NC(=O)Nc2ccc(-c3nc(N4CCOCC4)nc(N4CCOCC4)n3)cc2)cc1` [Example 500, 1-[2-(dimethylamino)ethyl]-3-[4-({[4-(4,6-dimorpholin-4-yl-1,3,5-triazin-2-yl)phenyl]carbamoyl}amino)phenyl]-1-methylurea], the pIC50 on Human mTOR (FLAG-TOR) is 8.96; in experiment [1] (Homo sapiens, 72 h, MTS cell growth assay, three days after drug treatment, MDA-MB-361 cells) it was 9.00; at PI3K-α, 9.40; at PI3K-γ it was 8.00.

Regarding `O=C(Nc1ccc(C(=O)N2CCC(N3CCCCC3)CC2)cc1)Nc1ccc(-c2nc(N3CCOCC3)nc(N3C4CCC3COC4)n2)cc1` [Example 760, 1-[4-(1,4′-bipiperidin-1′-ylcarbonyl)phenyl]-3-{4-[4-morpholin-4-yl-6-(3-oxa-8-azabicyclo[3.2.1]oct-8-yl)-1,3,5-triazin-2-yl]phenyl}urea], the pIC50 was 9.68 on Human mTOR (FLAG-TOR); 8.40 in experiment [2] (Homo sapiens, PC3MM2, 72 h, MTS cell growth assay, three days after drug treatment, PC3-mm2 cells); 8.37 at PI3K-α; 7.55 on PI3K-γ.

For the molecule `O=C(Nc1ccncc1)Nc1ccc(-c2nc(N3CCOCC3)nc(N3CC4CCC3CO4)n2)cc1` (stereo not shown) [Example 807, 1-{4-[4-morpholin-4-yl-6-(2-oxa-5-azabicyclo[2.2.2]oct-5-yl)-1,3,5-triazin-2-yl]phenyl}-3-pyridin-4-ylurea], the pIC50 in experiment [1] (Homo sapiens, 72 h, MDA-MB-361 cells, MTS, three days after drug treatment) is 7.46; in experiment [2] (setting [7]) it was 7.43.

With `CN1CCN(C(=O)c2ccc(NC(=O)Nc3ccc(-c4nc(N5CCOCC5)[nH]c(=O)n4)cc3)cc2)CC1` [Example 826, 1-{4-[(4-methylpiperazin-1-yl)carbonyl]phenyl}-3-[4-(6-morpholin-4-yl-4-oxo-4,5-dihydro-1,3,5-triazin-2-yl)phenyl]urea], the pIC50 in experiment [1] (Homo sapiens, MDA-MB-361, 72 h) was below 6.00; in experiment [2] (setting [7]), below 6.00; at PI3K-α it was 7.82.

As for “N-[2-(dimethylamino)ethyl]-4-({[4-(4-morpholin-4-yl-6-piperidin-1-yl-1,3,5-triazin-2-yl)phenyl]carbamoyl}amino)benzamide [Example 601]”, the pIC50 was 8.52 on Human mTOR (FLAG-TOR), 6.81 in experiment [2] (setting [5]), 8.46 on PI3K-α and 7.24 at PI3K-γ.

A word on the pIC50: it is the IC50 on a negative log10 scale, so that one unit is a factor of ten.
